Measurements taken from patent publication US20140288185A1, “NICOTINIC RECEPTOR NON-COMPETITIVE MODULATORS” (Targacept, Inc., priority 2011, published 2014).
Where two headings read alike, the source gives them in different places.

What was measured:
Nicotinic, human α4β2 = Nicotinic, human α4β2 (Homo sapiens, UniProt P17787+P43681); assay: Competition binding, human α4β2 nicotinic receptor ([3H]nicotine)
Description: (§1) SH-EP1-human α4β2 (Eaton et al., 2003), cell lines were obtained from Dr. Ron Lukas (Barrow Neurological Institute). Cells were maintained in proliferative growth phase in Dulbecco's modified Eagle's medium (Invitrogen, Carlsbad, Calif.) with 10% horse serum (Invitrogen), 5% fetal bovine serum (HyClone, Logan Utah), 1 mM sodium pyruvate, 4 mM L-glutamine. For maintenance of stable transfectants, the α4β2 cell media was supplemented with 0.25 mg/mL zeocin and 0.13 mg/mL hygromycin B.
(§2) Cells were harvested in ice-cold PBS, pH 7.4, then homogenized with a Polytron (Kinematica GmbH, Switzerland). Homogenates were centrifuged at 40,000 g for 20 minutes (4° C.). The pellet was re-suspended in PBS and protein concentration determined using the Pierce BCA Protein Assay kit (Pierce Biotechnology, Rockford, Ill.).
(§3) Binding to nicotinic receptors was assayed on membranes using standard methods adapted from published procedures (Lippiello and Fernandes 1986; Davies et al., 1999). In brief, membranes were reconstituted from frozen stocks and incubated for 2 h on ice in 150 μl assay buffer (50 mM Tris, 154 mM NaCl, pH 7.4) in the presence of competitor compound (0.001 nM to 100 μM) and radioligand. [^3H]-nicotine (L-(−)-[N-methyl-^3H]-nicotine, 69.5 Ci/mmol, Perkin-Elmer Life Sciences, Waltham, Mass.) was used for human α4β2 binding studies. [^3H]-epibatidine (52 Ci/mmol, Perkin-Elmer Life Sciences) was used for binding studies at the other nicotinic receptor subtypes. Incubation was terminated by rapid filtration on a multimanifold tissue harvester (Brandel, Gaithersburg, Md.) using GF/B filters presoaked in 0.33% polyethyleneimine (w/v) to reduce non-specific binding. Filters were washed 3 times with ice-cold assay buffer and the retained radioactivity was determined by liquid scintillation counting.
(§4) Binding data were expressed as percent total control binding. Replicates for each point were averaged and plotted against the log of drug concentration. The IC50 (concentration of the compound that produces 50% inhibition of binding) was determined by least squares non-linear regression using GraphPad Prism software (GraphPAD, San Diego, Calif.). Ki was calculated using the Cheng-Prusoff equation (Cheng and Prusoff, 1973).

Nicotinic, human α3β4α5 = target: T1, Nicotinic, human α3β4α5 (Homo sapiens, UniProt P30532+P30926+P32297); assay: Competition binding, human ganglion nicotinic receptor (SH-SY5Y membranes)
T1 construct: endogenous in cells; host or cells: SH-SY5Y human neuroblastoma cells
Description: as §2, §3, §4

human α4β2 (HS) = human α4β2 (HS) (Homo sapiens, UniProt P17787+P43681); assay: Calcium flux inhibition, SH-EP1-human α4β2 treated at 29° C. (HS); assay type: cell-based
Description: as §1
(§5) Forty-eight hours prior to each experiment, cells were plated in 96 well black-walled, clear bottom plates (Corning, Corning, N.Y.) at 60-100,000 cells/well. On the day of the experiment, growth medium was gently removed, 200 μL 1×FLIPR Calcium 4 Assay reagent (Molecular Devices, Sunnyvale, Calif.) in assay buffer (20 mM HEPES, 7 mM TRIS base, 4 mM CaCl2, 5 mM D-glucose, 0.8 mM MgSO4, 5 mM KCl, 0.8 mM MgCl2, 120 mM N-methyl D-glucamine, 20 mM NaCl, pH 7.4 for SH-EP1-human α4β2 cells or 10 mM HEPES, 2.5 mM CaCl2, 5.6 mM D-glucose, 0.8 mM MgSO4, 5.3 mM KCl, 138 mM NaCl, pH 7.4 with TRIS-base for all other cell lines) was added to each well and plates were incubated at 37° C. for 1 hour (29° C. for the 29° C.-treated SH-EP1-human α4β2 cells). For inhibition studies, competitor compound (10 pM-10 μM) was added at the time of dye addition. The plates were removed from the incubator and allowed to equilibrate to room temperature. Plates were transferred to a FLIPR Tetra fluorometric imaging plate reader (Molecular Devices) for addition of compound and monitoring of fluorescence (excitation 485 nm, emission 525 nm). The amount of calcium flux was compared to both a positive (nicotine) and negative control (buffer alone). The positive control was defined as 100% response and the results of the test compounds were expressed as a percentage of the positive control. For inhibition studies, the agonist nicotine was used at concentrations of 1 μM for SH-EP1-human α4β2 treated at 29° C. (HS), 10 μM for SH-EP1-human α4β2 maintained at 37° C. (LS), and 20 μM for SH-SY5Y cells or CHO_human α3β4.

human α4β2 (LS) = human α4β2 (LS) (Homo sapiens, UniProt P17787+P43681); assay: Calcium flux inhibition, SH-EP1-human α4β2 maintained at 37° C. (LS); assay type: cell-based; details: for Emax: read-out: Human α4β2 Ca Flux Imax [37C/HS]
Description: as §1
as §5, with “For inhibition studies, the agonist nicotine was used at concentrations of 1 μM for SH-EP1-human α4β2 treated at 29° C. (HS), 10 μM for SH-EP1-human α4β2 maintained at 37° C.” left out

[1] = target: T2, Human Ganglion (SH-SY5Y cells) (Homo sapiens, UniProt P30532+P30926+P32297); assay: Calcium flux inhibition, human ganglion (SH-SY5Y cells); assay type: cell-based
T2 construct: endogenous in cells; host or cells: SH-SY5Y human neuroblastoma cells
Description: as §5

Nicotinic, human α3β4 = target: T3, Nicotinic, human α3β4 (Homo sapiens, UniProt P30926+P32297); assay: Competition binding, human α3β4 nicotinic receptor (CHO human α3β4 membranes)
T3 construct: host or cells: CHO
Description: (§6) CHO-human α3β4 cells (obtained from ChanTest, Cleveland, Ohio, catalog #CT6021) were maintained in proliferative growth phase in Ham's F12 (VWR) with 10% fetal bovine serum (Invitrogen), 0.25 mg/mL geneticin; 0.4 mg/ml zeocin. The amino acid sequences encoded by the transfected cDNA constructs used to generate the CHO-human α3β4 cells are identical to the translated sequences for GenBank accession numbers NM_000743.2 and NM_000750.3, respectively.
as §2, §3, §4

human α3β4 = target: T4, human α3β4 (Homo sapiens, UniProt P30926+P32297); assay: Calcium flux inhibition, CHO-human α3β4 cells; assay type: cell-based
T4 construct: host or cells: CHO
Description: as §6, §5

[2] = SH-EP1-Human α4β2 cell membranes, [3H]nicotine 2 nM, read-out: Human α4β2 Ki
[3] = 29° C.-treated cells (HS), nicotine 1 μM
[4] = 29° C.-treated cells (HS), nicotine 1 μM, read-out: Human α4β2 Ca Flux IC50 [29C/HS]
[5] = cells maintained at 37° C. (LS), nicotine 10 μM, read-out: Human α4β2 Ca Flux IC50 [37C/LS]
[6] = cells maintained at 37° C., nicotine 10 μM
[7] = SH-SY5Y cells, nicotine 20 μM, read-out: Human Ganglion Ca Flux IC50
[8] = CHO Human α3β4 membranes, [3H]epibatidine 1 nM, read-out: Human CHO α3β4 Ki
[9] = nicotine 20 μM, read-out: Human CHO α3β4 Ca Flux IC50

Row | Compound | Ki (Nicotinic, human α4β2; [2]) [nM] | Ki (Nicotinic, human α3β4α5; SH-SY5Y cell membranes (α3β4α5), [3H]epibatidine 1 nM, read-out: Human Ganglion Ki) [nM] | Human α4β2 Ca Flux Imax [29C/HS] (human α4β2 (HS); [3]) [% inh] | IC50 (human α4β2 (HS); [4]) [nM] | IC50 (human α4β2 (LS); [5]) [nM] | Emax (human α4β2 (LS); [6]) [%] | Human Ganglion Ca Flux Imax ([1]; SH-SY5Y cells, nicotine 20 μM) [% inh] | IC50 [1, 7] [nM] | Ki (Nicotinic, human α4β2) [nM] | Ki (Nicotinic, human α3β4) [nM] | IC50 (human α4β2 (HS)) [nM] | IC50 (human α4β2 (LS)) [nM] | Emax (human α4β2 (LS)) [%] | IC50 (human α3β4) [nM] | Human CHO α3β4 Ca Flux Imax (human α3β4; nicotine 20 μM) [% inh] | Ki (Nicotinic, human α3β4α5) [nM] | Ki (Nicotinic, human α3β4; [8]) [nM] | IC50 (human α3β4; [9]) [nM] | IC50 [1] [nM]
1 | CNC12CCCC1(CO)C1CCC2C1 (stereo not drawn) | 31000 | 89000 | 99 | 370 | 380 | 90 | 91 | 200 | – | – | – | – | – | – | – | – | – | – | –
2 | CCC12CCCC1(NC)C1CCC2C1 (stereo not drawn) | – | – | 100 | – | – | – | 98 | 20 | 34000 | 75000 | 430 | 170 | 97 | 220 | 97 | – | – | – | –
3 | CCCC12CCCC1(NC)C1CCC2C1 (stereo not drawn) | – | – | 100 | – | – | – | 98 | 30 | 29000 | 73000 | 210 | 170 | 96 | 130 | 96 | 52000 | – | – | –
4 | CCCCC12CCCC1(NC)C1CCC2C1 (stereo not drawn) | 73000 | – | 99 | 460 | 140 | – | 93 | – | – | – | – | – | 96 | – | 96 | – | 74000 | 300 | 24
5 | CN[C@]12CCC[C@H]1[C@@H]1CC[C@H]2C1 | – | – | 96 | – | – | – | 95 | 380 | 33000 | – | 550 | 340 | 96 | 490 | 97 | – | – | – | –
6 | CN[C@@]12CCC[C@@H]1[C@H]1CC[C@@H]2C1 | – | – | 97 | – | – | – | 95 | 490 | 51000 | 80000 | 380 | 380 | 96 | 660 | 97 | 70000 | – | – | –
7 | [2H]C([2H])NC12CCCC1(C([2H])([2H])[2H])C1CCC2C1 (stereo not drawn) | 26000 | – | – | – | 76 | 95 | 99 | 83 | – | – | – | – | – | – | – | – | – | – | –
8 | C[N+](C)(C)[C@]12CCC[C@H]1[C@@H]1CC[C@H]2C1 | 8600 | – | – | – | 380 | 100 | 97 | 1800 | – | – | – | – | – | – | – | – | 13000 | – | –
9 | C[N+](C)(C)[C@@]12CCC[C@@H]1[C@H]1CC[C@@H]2C1 | 6900 | – | – | – | 260 | 98 | – | – | – | – | – | – | – | – | 94 | – | – | 940 | –
10 | CC[C@]12CCC[C@@]1(NC)[C@@H]1CC[C@H]2C1 | – | – | 100 | – | – | – | – | – | 32000 | 53000 | 510 | 6900 | 94 | 120 | 97 | – | – | – | –
11 | CN(C)[C@]12CCC[C@H]1[C@@H]1CC[C@H]2C1 | 47000 | – | 99 | 410 | 410 | 98 | – | – | – | – | – | – | – | – | 97 | – | 16000 | 230 | –
12 | CN(C)[C@@]12CCC[C@@H]1[C@H]1CC[C@@H]2C1 | 20000 | – | 96 | 510 | 500 | 98 | – | – | – | – | – | – | – | – | 96 | – | 13000 | 190 | –
13 | CC[C@@]12CCC[C@]1(N(C)C)[C@H]1CC[C@@H]2C1 | 33000 | – | – | – | 710 | – | – | – | – | – | – | – | 98 | – | 95 | – | 91000 | 240 | –
14 | CC[C@]12CCC[C@@]1(N(C)C)[C@@H]1CC[C@H]2C1 | 64000 | – | – | – | 370 | – | – | – | – | – | – | – | 99 | – | 96 | – | 70000 | 200 | –
